From patent publication US8673841B2 (Ferring B.V., priority 2008, dated 2014) come the findings set out here.

For one test, the target named is T1, hOT receptor (Homo sapiens, UniProt P30559).
T1 sequence (P30559 1-389): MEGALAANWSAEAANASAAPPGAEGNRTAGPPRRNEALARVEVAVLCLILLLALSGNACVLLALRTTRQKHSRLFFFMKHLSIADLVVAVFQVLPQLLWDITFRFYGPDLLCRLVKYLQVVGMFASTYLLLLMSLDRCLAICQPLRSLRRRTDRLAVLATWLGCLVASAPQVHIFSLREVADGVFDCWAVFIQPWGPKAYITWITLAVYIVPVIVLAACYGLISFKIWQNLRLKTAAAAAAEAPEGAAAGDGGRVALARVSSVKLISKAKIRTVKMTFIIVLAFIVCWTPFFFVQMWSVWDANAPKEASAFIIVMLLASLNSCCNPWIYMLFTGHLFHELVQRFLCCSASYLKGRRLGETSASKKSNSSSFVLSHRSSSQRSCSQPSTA
Description: transcriptional reporter gene assay (luciferase), agonist activity on hOT receptor in transfected CHO cells. Background: Reporter assays use an easily measured gene product as a stand-in for the process of interest.

Test [1] concerns the target human vasopressin (hV2) receptor (Homo sapiens, UniProt P30518). Description: luciferase-based transcriptional reporter gene assay expressing the human vasopressin (hV2) receptor. Particulars: for Selectivity hV2/hOT: EC50 ratio hV2/hOT.
Description: (§1) Agonist activity of compounds on the hOT receptor was determined in a transcriptional reporter gene assay by transiently transfecting a hOT receptor expression DNA into a Chinese Hamster Ovary (CHO) cell line in concert with a reporter DNA containing intracellular calcium responsive promoter elements regulating expression of firefly luciferase.
(§2) The EC50 value given is the geometric mean expressed in nanomol/l (nM). Selectivity values are given as EC50 ratios.

Starred links: 1 amine or outer side, 2 acyl side, 3 side chain; linkers in the order of their positions; H or OH if unused. Positions of bridges follow the written chain, without caps; N, C: chain ends. Non-standard residues stand in square brackets, D forms with d. Residues, ends and D or L forms follow the SMILES beside them. N(3-phenylpropyl)Gly = O=C(O)CNCCCc1ccccc1; Phe(4-Et) = CCc1ccc(C[C@H](N)C(=O)O)cc1; X1 = O=C(CN(Cc1ccc(F)c(F)c1)[*:1])[*:2]; X4 = Cc1ccc(CCN(CC(=O)[*:2])[*:1])cc1; cisHyp = O=C(O)[C@@H]1C[C@H](O)CN1; X2 = O=C(CCC[*:2])[*:1]; Mpa = O=C(O)CCS

Sequence of human vasopressin (hV2) receptor (P30518 whole entry): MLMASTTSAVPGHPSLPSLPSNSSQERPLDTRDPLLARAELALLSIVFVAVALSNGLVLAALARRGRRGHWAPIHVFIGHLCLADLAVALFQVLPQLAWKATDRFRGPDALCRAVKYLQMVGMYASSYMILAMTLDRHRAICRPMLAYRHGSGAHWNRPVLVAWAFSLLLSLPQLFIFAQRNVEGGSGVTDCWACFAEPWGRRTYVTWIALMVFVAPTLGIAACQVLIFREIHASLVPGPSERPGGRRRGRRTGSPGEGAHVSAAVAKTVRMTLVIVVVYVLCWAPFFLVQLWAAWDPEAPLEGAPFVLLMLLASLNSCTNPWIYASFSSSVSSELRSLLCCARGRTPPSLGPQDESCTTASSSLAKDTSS
Description for hOT receptor: as §1, §2

In turn, `CC[C@H](C)[C@@H]1NC(=O)[C@H](Cc2ccc(O)cc2)NC(=O)CCSSC[C@@H](C(=O)N(CC(=O)N[C@@H](CC(C)C)C(=O)NCC(N)=O)Cc2ccc(F)c(F)c2)NC(=O)[C@H](CC(N)=O)NC(=O)[C@H](CCC(N)=O)NC1=O` [Compound 11] ([Mpa]YIQNC[X1]LG-NH2; disulfide 1-6) had an EC50 on hOT receptor of 0.026 nM. For the same compound, in test [1], the EC50 is 58.5 nM and the “Selectivity hV2/hOT” value is listed as 2217.
For `CC[C@H](C)[C@@H]1NC(=O)[C@H](Cc2ccc(O)cc2)NC(=O)CCSSC[C@@H](C(=O)N(CCc2ccc(C)cc2)CC(=O)N[C@@H](CC(C)C)C(=O)NCC(N)=O)NC(=O)[C@H](CC(N)=O)NC(=O)[C@H](CCC(N)=O)NC1=O` [Compound 15] ([Mpa]YIQNC[X4]LG-NH2; disulfide 1-6), in that order: 0.04 nM, 102 nM and 2533.
Consider `CC[C@H](C)[C@@H]1NC(=O)[C@H](Cc2ccc(O)cc2)NC(=O)CCSSC[C@@H](C(=O)N(CCCc2ccccc2)CC(=O)N[C@@H](CC(C)C)C(=O)NCC(N)=O)NC(=O)[C@H](CC(N)=O)NC(=O)[C@H](CCC(N)=O)NC1=O` [Compound 25] ([Mpa]YIQNC[N(3-phenylpropyl)Gly]LG-NH2; disulfide 1-6), for which the response at hOT receptor was half-maximal at 0.058 nM (EC50). Moreover, in test [1], the EC50 stood at 159 nM and the “Selectivity hV2/hOT” value was 2736.
As for `CCc1ccc(C[C@@H]2NC(=O)CCCSC[C@@H](C(=O)N3C[C@@H](O)C[C@H]3C(=O)N[C@@H](CC(C)C)C(=O)NCC(N)=O)NC(=O)[C@H](CC(N)=O)NC(=O)[C@H](CCC(N)=O)NC(=O)[C@H]([C@@H](C)CC)NC2=O)cc1` [Compound 6] ([Phe(4-Et)]IQNC[cisHyp]LG-NH2; linker N-5 via X2), the EC50 at hOT receptor was found to be 0.064 nM. Besides, in test [1], a half-maximal response (EC50) required 39.9 nM and the “Selectivity hV2/hOT” value is 629.

Usually EC50 stands for the midpoint of the concentration-response curve. Low readings indicate greater potency, high ones weaker potency.
